# Experimental data: paper PMC5612656, “In vitro and in vivo effects of 2,4 diaminoquinazoline inhibitors of the decapping scavenger enzyme DcpS: Context-specific modulation of SMN transcript levels” (PLoS ONE, 2017)
# Test system: spinal cord transcriptome
# Assay: RNA-Seq of spinal cord tissue from 2B/- and 2B/+ mice
# Type: in vivo, mouse
# Conditions: 2B-Veh vs 2B-RG3039
smiles,measurement,setting,value
Nc1nc(N)c2c(OCC3CCN(Cc4c(Cl)cccc4Cl)CC3)cccc2n1 [RG3039],log2(fold-change) Slc16a3,,-0.7903
same,log2(fold-change) Slc16a9,,-0.6931
same,log2(fold-change) Slc24a4,,-0.7011
same,log2(fold-change) Slc25a34,,-1.809
same,log2(fold-change) Slc38a5,,1.057
same,log2(fold-change) Slc43a2,,-0.4622
same,log2(fold-change) Smim3,,-1.398
same,log2(fold-change) Sox7,,0.9813
same,log2(fold-change) Sspo,,-0.7538
same,log2(fold-change) Steap3,,0.5769
same,log2(fold-change) Sult1a1,,-1.637
same,log2(fold-change) T2,,-0.674
same,log2(fold-change) Thbd,,0.6475
same,log2(fold-change) Tjap1,,-0.5932
same,log2(fold-change) Tmem52,,-2.209
same,log2(fold-change) Tmem82,,-2.075
same,log2(fold-change) Tnc,,1.175
same,log2(fold-change) Tnfrsf11b,,0.7466
same,log2(fold-change) Tnfsf10,,1.316
same,log2(fold-change) Top2a,,0.5734
same,log2(fold-change) Trim17,,-0.4978
same,log2(fold-change) Trim63,,-1.544
same,log2(fold-change) Txnip,,-1.514
same,log2(fold-change) Ube2c,,0.4464
same,log2(fold-change) Uhrf1,,0.8234
same,log2(fold-change) Vegfc,,0.6909
same,log2(fold-change) Wfdc18,,-1.041
same,log2(fold-change) Wnt7a,,1.48
same,log2(fold-change) Zbtb16,,-1.136
same,log2(fold-change) Zfand4,,-0.6603
same,log2(fold-change),gene 1110032A03Rik,-0.2821
same,log2(fold-change),gene Acsbg1,-0.2673
same,log2(fold-change),gene Adam15,-0.3484
same,log2(fold-change),gene Adi1,-0.4121
same,log2(fold-change),gene Adra1b,0.2729
same,log2(fold-change),gene Aff1,-0.2665
same,log2(fold-change),gene Ak3,-0.3763
same,log2(fold-change),gene Aldh1l1,-0.3854
same,log2(fold-change),gene Aldoc,-0.3499
same,log2(fold-change),gene Amz1,0.2752
same,log2(fold-change),gene Ap5z1,-0.356
same,log2(fold-change),gene Aqp11,-0.2575
same,log2(fold-change),gene Arsk,-0.2986
same,log2(fold-change),gene B3gnt9,-0.2654
same,log2(fold-change),gene Bahd1,0.2771
same,log2(fold-change),gene Boc,-0.2865
same,log2(fold-change),gene Calr,0.1683
same,log2(fold-change),gene Ccdc41os1,-0.2491
same,log2(fold-change),gene Ccdc117,0.2458
same,log2(fold-change),gene Ccnyl1,0.3378
same,log2(fold-change),gene Cdc25a,0.2456
same,log2(fold-change),gene Clmp,0.2336
same,log2(fold-change),gene Cntfr,-0.3422
same,log2(fold-change),gene Col9a3,0.1971
same,log2(fold-change),gene Cpt1c,-0.278
same,log2(fold-change),gene Crabp1,0.2782
same,log2(fold-change),gene Cryz,-0.1892
same,log2(fold-change),gene Daam2,-0.2024
same,log2(fold-change),gene Darc,0.1786
same,log2(fold-change),gene Decr1,-0.3016
same,log2(fold-change),gene Dnm2,-0.2166
same,log2(fold-change),gene Efnb3,-0.3581
same,log2(fold-change),gene Elmo2,0.364
same,log2(fold-change),gene Eltd1,-0.2627
same,log2(fold-change),gene Fkbp10,0.3165
same,log2(fold-change),gene Fmnl3,0.3298
same,log2(fold-change),gene Foxo3,-0.2832
same,log2(fold-change),gene Gpt2,-0.2642
same,log2(fold-change),gene Gstt1,-0.358
same,log2(fold-change),gene Hapln2,-0.2887
same,log2(fold-change),gene Hmgcr,0.3374
same,log2(fold-change),gene Hopx,0.2486
same,log2(fold-change),gene Hsdl2,-0.1941
same,log2(fold-change),gene Itfg3,-0.4076
same,log2(fold-change),gene Ivd,-0.3584
same,log2(fold-change),gene Kctd3,-0.3771
same,log2(fold-change),gene Kctd15,0.2608
same,log2(fold-change),gene Kpna2,0.269
same,log2(fold-change),gene Lpcat1,0.2395
same,log2(fold-change),gene Lrrc1,-0.4303
same,log2(fold-change),gene Lxn,0.285
same,log2(fold-change),gene Maged2,0.2097
same,log2(fold-change),gene Megf9,-0.283
same,log2(fold-change),gene Megf11,0.3115
same,log2(fold-change),gene Mmp15,0.2397
same,log2(fold-change),gene Msi1,0.3899
same,log2(fold-change),gene Mterfd3,-0.3526
same,log2(fold-change),gene Ngef,0.3246
same,log2(fold-change),gene Nid1,0.3048
same,log2(fold-change),gene Npl,0.2963
same,log2(fold-change),gene Nr2f1,0.3426
same,log2(fold-change),gene Nrbp2,-0.2827
same,log2(fold-change),gene Nrep,0.3402
